This data set is described as follows: solvent given as SMILES.

On to `CCCCCCc1ccc(-n2c3[n+](c4c5ccccc5c5ccccc5c42)[B-](C)(C)c2ccc4ccccc4c2-3)cc1`, for which the absorption maximum runs as follows: (in C1CCOC1) 392 nm; (in CC#N) 385 nm; (in Cc1ccccc1) 393 nm; (in ClCCl) 390 nm.
On to `CC(C)(C)[Si](C)(C)c1ccc([Si](C)(C)C(C)(C)C)c2ccccc12`, for which the absorption maximum (in C1CCCCC1) was determined as 302 nm.
For `C[Si]1(C)c2cc(-c3ccc(-c4cccs4)s3)ccc2C=Cc2ccc(-c3ccc(-c4cccs4)s3)cc21`, the absorption maximum (in ClCCl) stood at 458 nm.
In turn, `Cc1cccc(-c2nc3sc4ccccc4c3s2)c1` had an absorption maximum (in CS(C)=O) of 348 nm.
With `c1ccc2c(c1)c1ccccc1n2-c1ccc(-c2ccc(-n3c4ccccc4c4ccccc43)nc2-n2c3ccccc3c3ccccc32)nn1`, the absorption maximum reads like this: (in CC#N) 335 nm; (in Cc1ccccc1) 346 nm; (in ClCCl) 337 nm.
With `Nc1ccc(C#Cc2ccc3ccc4ccc(C#Cc5ccc(N)cc5)c5ccc2c3c45)cc1`, the absorption maximum (in C1COCCO1) came out at 420 nm; the absorption maximum (in CC(C)=O) is 421 nm; the absorption maximum (in CCCCCC) stood at 421 nm; the absorption maximum (in CCCCCCO) is 421 nm; the absorption maximum (in CCO) came out at 419 nm; the absorption maximum (in CCOC(C)=O) was 419 nm. The absorption maximum is on record as 415 nm (in CO), 417 nm (in Cc1ccccc1) and 417 nm (in ClCCl).
On to `CCCCOC(=O)/C(C#N)=C1\C(=O)C([O-])=C1C=C1N(C)c2ccccc2C1(C)C`, for which the absorption maximum (in CCO) turned out to be 462 nm.
For `Cn1c2nc(=O)[nH]c(=O)c-2nc2ccccc21`, where the note is “in CC1CCCO1”, the absorption maximum is reported as 459 nm.
As for `CCCCCCCCN1C(=O)c2ccc3c4c(-c5ccc(-n6c7ccccc7c7ccccc76)cc5)cc5c6c(ccc(c7c(-c8ccc(-n9c%10ccccc%10c%10ccccc%109)cc8)cc(c2c37)C1=O)c64)C(=O)N(CCCCCCCC)C5=O`, the absorption maximum (in ClC(Cl)Cl) was determined as 561 nm.
In the case of `F[B-]1(F)n2cccc2C(c2c3ccccc3c(-c3ccccc3)c3ccccc23)=C2C=CC=[N+]21`, the absorption maximum by setting is: (in CC#N) 502 nm; (in CCCCCC) 509 nm; (in CCO) 504 nm; (in CN(C)C=O) 506 nm; (in Cc1ccccc1) 509 nm; (in ClCCl) 506 nm.
With `N#Cc1cccc(C#N)c1-c1ccc(N2c3ccccc3C3(c4ccccc42)c2ccccc2N(c2ccc(-c4c(C#N)cccc4C#N)cc2)c2ccccc23)cc1`, the absorption maximum (in Cc1ccccc1) is recorded as 371.03 nm.
Turning to `Cc1cc(=O)oc2cc3cc(O)ccc3cc12`, the absorption maximum by setting is: (in CC#N) 343 nm; (in CCO) 357 nm.
Regarding `O=P1(c2ccccc2)c2cccc3c4ccccc4c4ccc1n4c23` (centres undefined), for the setting “in ClCCl”, the absorption maximum stood at 378 nm.
In the case of `Cc1nc2cccc(-c3nc4ccc([N+](=O)[O-])cc4[nH]3)c2c(=O)[nH]1`, the absorption maximum (in CN(C)C=O) worked out at 310 nm.
With `CCCc1cc2c(s1)-c1cc3c(cc1NB2c1ccccc1)-c1sc(CCC)cc1B(c1ccccc1)N3`, for the setting “in ClCCl”, the absorption maximum is listed as 411 nm.
Turning to `CCN1\C(=C/C=C/C=C/C2=[N+](CC)c3ccc4ccccc4c3C2(C)C)C(C)(C)c2c1ccc1ccccc21`, the absorption maximum came out at 684 nm (in C1CCOC1); 677 nm (in CC#N); 680 nm (in CC(C)=O); 682 nm (in CCO); 683 nm (in CN(C)C=O); 678 nm (in CO). Also, the absorption maximum was 686 nm (in CS(C)=O) and 693 nm (in ClCCl).
`CC(C)[Si](C#Cc1c2ccccc2c(C#C[Si](C(C)C)(C(C)C)C(C)C)c2nc3c(ccc4cc5ccccc5cc43)nc12)(C(C)C)C(C)C` returned an absorption maximum (in CCCCCC) of 536 nm.
Consider `CCCCCCCCCCCCOc1ccc(C#Cc2ccc(C#Cc3ccc(OCCCCCCCCCCCC)c(OCCCCCCCCCCCC)c3)c3nc4c5ccccc5c5ccccc5c4nc23)cc1OCCCCCCCCCCCC`, for which the absorption maximum is 461 nm (in C1CCOC1), 461 nm (in Cc1ccccc1) and 461 nm (in ClCCl).
On to `CSc1cc(-c2cc3cc4c5c(c3oc2=O)CCCN5CCC4)oc(=O)c1C#N`, for which the absorption maximum by setting is: (in C1CCOC1) 532 nm; (in CC#N) 537 nm; (in CC(C)=O) 536 nm; (in CCOC(C)=O) 527 nm; (in CN(C)C=O) 545 nm; (in CO) 537 nm. Moreover, the absorption maximum was found to be 549 nm (in CS(C)=O), 527 nm (in Cc1ccccc1), 538 nm (in ClC(Cl)Cl) and 541 nm (in ClCCl).
For `Cn1c(=O)cc(C(=O)c2ccccc2)c2sc(-c3ccc(OC(F)(F)F)cc3)cc21`, the absorption maximum was found to be 394 nm (in CC#N) and 400 nm (in ClCCl).
With `c1ccc(N(c2ccccc2)c2ccc3c(ccc4nc5ccc6cc(N(c7ccccc7)c7ccccc7)ccc6c5nc43)c2)cc1`, the absorption maximum by setting is: (in C1CCCCC1) 471 nm; (in C1CCOC1) 474 nm; (in CN(C)C=O) 477 nm; (in Cc1ccccc1) 473 nm; (in ClCCl) 476 nm.
For the compound `CC1CC(C)(C)N(C)c2ccc(/C=C/c3ccc(/C=C(\C#N)C(=O)O)s3)cc21` (centres undefined), under “in ClCCl”, the absorption maximum came out at 525 nm.
Regarding `CCOC(=O)c1c(C=Cc2ccccc2)oc(NC2CCCCC2)c1C(=O)OCC`, the absorption maximum (in CC#N) amounted to 384 nm.
On to `CC(C)(C)c1ccc(C#Cc2cc(C#Cc3ccc(C(C)(C)C)cc3)c(C#Cc3ccc(C(C)(C)C)cc3)c(C#Cc3ccc(C(C)(C)C)cc3)c2C#Cc2ccc(C(C)(C)C)cc2)cc1`, for which the absorption maximum (in ClCCl) is on record as 373 nm.
For the compound `Cc1cc2ccccc2c2c1c1ccccc1n2-c1ccccc1`, the absorption maximum (in ClCCl) is 303 nm.
As to `F[B-]1(F)n2cccc2C=C2C=CC=[N+]21`, the absorption maximum is listed as 503.5 nm (in C1CCCCC1); 497.5 nm (in CC(C)=O); 502 nm (in CCCCCC); 498 nm (in CCO); 498 nm (in CCOC(C)=O); 497 nm (in CO). The absorption maximum is given as 503 nm (in ClCCl) and 497 nm (in OCC(F)(F)F).
Turning to `CNCCCC1c2ccccc2C=Cc2ccccc21`, the absorption maximum is, setting by setting: (in CC#N) 293 nm; (in CO) 293 nm; (in O) 292 nm.
Compound `C1=Cc2ccccc2C(=Cc2ccc(-c3ccc(C=C4c5ccccc5-c5ccccc54)cc3)cc2)c2ccccc21` gave an absorption maximum (in C1CCOC1) of 357 nm.
For `CCCCCCCCCCCCOc1cc2c3cc(OCCCCCCCCCCCC)c(OCCCCCCCCCCCC)cc3c3c(cc(OCCCCCCCCCCCC)c4nc5cc(C#Cc6ccc(OCCCC)cc6)c(C#Cc6ccc(OCCCC)cc6)cc5nc43)c2cc1OCCCCCCCCCCCC`, under “in ClC(Cl)Cl”, the absorption maximum was 485 nm.
Where the note is “in Cc1ccccc1”, `c1ccc(-c2nc(-c3ccccc3)nc(-c3ccc(-n4c5ccccc5c5cc6c(cc54)c4ccccc4n6-c4ccccc4)cc3)n2)cc1` came in with an absorption maximum of 403 nm.
`Fc1cc(-c2ccc(-c3nc4ccccc4[nH]3)cc2)ccc1-c1ccc(-c2nc3ccccc3[nH]2)cc1` showed an absorption maximum (in CN(C)C=O) of 343 nm.
The compound `c1cc2ccc3cc4cccc5ccc6cc(c1)c2c3c6c54` came in with an absorption maximum (in ClCCl) of 433 nm.
Take `CN(C)c1ccc(C#Cc2cc3ccc4cc(C#Cc5ccc(N(C)C)cc5)cc5ccc(c2)c3c45)cc1`: the absorption maximum (in Cc1ccccc1) is recorded as 421 nm.
With `c1ccc(-c2c3c(cc4c2-c2ccccc2C4)-c2ccccc2C3)cc1`, the absorption maximum (in C1CCCCC1) amounted to 331 nm.
Turning to `CCCCCCCCCCCCCCCCCCOc1ccc(C#Cc2cc3nc4c(OCCCCCCCCCCCC)cc5c6cc(OCCCCCCCCCCCC)c(OCCCCCCCCCCCC)cc6c6cc(OCCCCCCCCCCCC)c(OCCCCCCCCCCCC)cc6c5c4nc3cc2C#Cc2ccc(OCCCCCCCCCCCCCCCCCC)cc2)cc1`, the absorption maximum (in ClC(Cl)Cl) is 487 nm.
In turn, `CCC1(CC)c2ccccc2-c2ccc(C#Cc3cc(C#Cc4ccc5c(c4)C(CC)(CC)c4ccccc4-5)c4ccc5c(C#Cc6ccc7c(c6)C(CC)(CC)c6ccccc6-7)cc(C#Cc6ccc7c(c6)C(CC)(CC)c6ccccc6-7)c6ccc3c4c65)cc21` had an absorption maximum (in Cc1ccccc1) of 488 nm.
As to `Cc1cc(C)c(C2=C3C=c4c(c5ccc(C(C)(C)C)cc5c5cc(C(C)(C)C)ccc45)=[N+]3[B-](F)(F)n3c2cc2c4ccc(C(C)(C)C)cc4c4cc(C(C)(C)C)ccc4c23)c(C)c1`, the absorption maximum is reported as 693 nm (in C1CCCCC1); 692 nm (in C1CCOC1); 686 nm (in CC#N); 698 nm (in Cc1ccccc1); 693 nm (in ClCCl).
The compound `c1ccc(-c2ccc(-c3nc(-n4c5ccccc5c5ccc6c7ccccc7n(-c7ccccc7)c6c54)nc(-n4c5ccccc5c5ccc6c7ccccc7n(-c7ccccc7)c6c54)n3)cc2)cc1` came in with an absorption maximum (in Cc1ccccc1) of 403 nm.
In turn, `CCC(C)[Si](C#Cc1c2nc3c4ccccc4c(=O)c4ccccc4c3nc2c(C#C[Si](C(C)CC)(C(C)CC)C(C)CC)c2nc3c4ccccc4c(=O)c4ccccc4c3nc12)(C(C)CC)C(C)CC` (centres undefined) gave an absorption maximum (in ClCCl) of 544 nm.
`Cc1ccc2c(c1)C1(c3ccccc3Oc3ccccc31)c1cc(C)ccc1N2c1ccc(-c2nc(-c3ccccc3)cc(-c3ccccc3)n2)cc1` came in with an absorption maximum (in Cc1ccccc1) of 378 nm.
In the case of `CC(C)(C)NC(=O)c1ccc(-c2ccc(N3c4ccccc4Oc4ccccc43)cc2)c2ccc3c4ccc(F)cc4c4cc(F)ccc4c3c12`, the absorption maximum (in ClCCl) is given as 331 nm.
`CC(C)[Si]1(C(C)C)c2cc(C=O)ccc2-c2ccc(N(C)C)cc21`: the absorption maximum was 390 nm (in C1CCCCC1); 391 nm (in CC#N); 395 nm (in CCO); 384 nm (in CCOCC); 400 nm (in CS(C)=O); 397 nm (in ClCCl). Also, under “in c1ccccc1”, the absorption maximum is 392 nm.
As for `F[B-]1(F)Oc2ccccc2-c2cc(-n3c4ccc(-c5ccccc5)cc4c4cc(-c5ccccc5)ccc43)cc[n+]21`, where the note is “in Cc1ccccc1”, the absorption maximum turned out to be 374 nm.

The values above are taken from the Deep4Chem optical property database.
